# Patent US10004775B2, “Inhibition of hypoxia-inducible factor activity with carica papaya extracts” (The Regents of the University of California, priority 2013, dated 2018)
# Columns and labels:
# Saos-2 cells = test: MTT assay of cell viability after 24 h treatment in normoxic or hypoxic conditions; format: cell-based, human; conditions: FIG. 1A
# Method: The leaves were washed with distilled water and left to air-dry at room temperature or in an oven at 40° C. until a constant weight was obtained. Dried leaves were then blended into a powder form, soaked and extracted in methanol at a 1:3 ratio (w/v) for three days at room temperature. Extracts were filtered by Whatman No. 1 filter paper with the aid of a vacuum pump. The residues were re-extracted twice using the same methanolic method. Filtrates were then concentrated by rotary evaporator at a maximum of 40° C. Concentrated extracts were collected in glass vials with push-in caps and dried in an oven at 40° C. until a constant weight was obtained. All of the crude extracts were stored −80° C. […] These concentrations were determined empirically and selected to cover a range of effects, ranging from no effect to significant cytotoxicity. […] After a further 4 h of incubation in 5% CO2 at 37° C., formazan precipitates that formed were dissolved with 100 μl of DMSO and the reaction was read in a microplate reader (Model 550, BioRad, Hercules, Calif.) at 570 nm absorbance and 630 nm as the reference wavelength.
# HIF = HIF reporter assay (hypoxia-driven firefly luciferase reporter); format: cell-based, human; conditions: cisplatin 0.1 mM; hypoxic HRE-luc Saos2 cells
# Method: A human osteosarcoma cell line, Saos-2 stably expressing four copies of the erythropoietin hypoxia response elements (HRE-luc Saos2; […] et al., Malaysian Patent Application #: PI 2012003492), was cultured in DMEM medium (PAA, USA) supplemented with 10% (v/v) fetal bovine serum (FBS; PAA, USA) and 1% (v/v) antibiotic-antimycotic (PAA, USA) in a humidified incubator supplied with ambient oxygen and 5% CO2 at 37° C. An hypoxic gaseous environment was created by incubating cells in a ProOx in vitro chamber (BioSpherix), controlled by ProOx model 110 (BioSpherix). The cells were supplied 0.5% O2, 94.5% N2 and 5% CO2 at 37° C. Cells were co-transfected with a hypoxia-driven firefly luciferase reporter plasmid construct containing four copies of the erythropoietin (EPO) hypoxia response elements (HRE) and a pRL-CMV expressing Renilla luciferase as described previously (Kaluz et al., 2008, […] et al., 2009, […] et al. Malaysian Patent Application No. PI 2012003492). Transfected cells were treated with appropriate concentrations of plant extracts and incubated in either normoxic or hypoxic conditions. After 24 h, firefly and Renilla luciferase signal intensities were measured (Kaluz et al., 2008, […] et al, 2009). Percent HIF inhibition was calculated as a ratio of the difference between untreated and plant extract-treated sample to the untreated sample. […]
SMILES,"IC50 in hypoxia compared with normoxia, in words (Saos-2 cells)",percent HIF inhibition (HIF)
CN1C(=O)[C@]2(Cc3cn([C@]45C[C@@]67SS[C@@](CO)(C(=O)N6[C@H]4Nc4ccccc45)N(C)C7=O)c4ccccc34)SS[C@@]1(CO)C(=O)N2C [chetomin],increased in hypoxia,–
N.N.[Cl][Pt][Cl] [cisplatin],significantly higher than in normoxia,around 60%
